From US20250090540A1, “PI3K-ALPHA INHIBITORS AND METHODS OF USE THEREOF” (Relay Therapeutics, Inc., priority 2021, published 2025)
pIC50: −log10 of the molar value.

Target: H1047R PIK3CA enzyme (Homo sapiens, UniProt P42336, H1047R)
Assay: ADP-Glo Biochemical PIK3CA Kinase Assay
Procedure: Compounds to be assayed were plated in 16 doses of 1:2 serial dilutions (20 nL volume each well) on a 1536-well plate, and the plate warmed to room temperature. PIK3CA enzyme (e.g. H1047R, E542K, E545K, or wild-type) (1 μL of 2 nM solution in Enzyme Assay Buffer (comprising 50 mM HEPES pH 7.4, 50 mM NaCl, 6 mM MgCl2, 5 mM DTT and 0.03% CHAPS)) was added and shaken for 10 seconds and preincubated for 30 minutes. To the well was added 1 μL of 200 μM ATP and 20 μM of diC8-PIP2 in Substrate Assay Buffer (50 mM HEPES pH7.4, 50 mM NaCl, 5 mM DTT and 0.03% CHAPS) to start the reaction, and the plate was shaken for 10 seconds, then spun briefly at 1500 rpm, and then incubated for 60 minutes at room temperature. The reaction was stopped by adding 2 μL of ADP-Glo reagent (Promega), and spinning briefly at 1500 rpm, and then incubating for 40 minutes. ADP-Glo Detection reagent (Promega) was added and the plate spun briefly at 1500 rpm, then incubated for 30 minutes.

Chain of H1047R PIK3CA enzyme (P42336 whole entry H1047R): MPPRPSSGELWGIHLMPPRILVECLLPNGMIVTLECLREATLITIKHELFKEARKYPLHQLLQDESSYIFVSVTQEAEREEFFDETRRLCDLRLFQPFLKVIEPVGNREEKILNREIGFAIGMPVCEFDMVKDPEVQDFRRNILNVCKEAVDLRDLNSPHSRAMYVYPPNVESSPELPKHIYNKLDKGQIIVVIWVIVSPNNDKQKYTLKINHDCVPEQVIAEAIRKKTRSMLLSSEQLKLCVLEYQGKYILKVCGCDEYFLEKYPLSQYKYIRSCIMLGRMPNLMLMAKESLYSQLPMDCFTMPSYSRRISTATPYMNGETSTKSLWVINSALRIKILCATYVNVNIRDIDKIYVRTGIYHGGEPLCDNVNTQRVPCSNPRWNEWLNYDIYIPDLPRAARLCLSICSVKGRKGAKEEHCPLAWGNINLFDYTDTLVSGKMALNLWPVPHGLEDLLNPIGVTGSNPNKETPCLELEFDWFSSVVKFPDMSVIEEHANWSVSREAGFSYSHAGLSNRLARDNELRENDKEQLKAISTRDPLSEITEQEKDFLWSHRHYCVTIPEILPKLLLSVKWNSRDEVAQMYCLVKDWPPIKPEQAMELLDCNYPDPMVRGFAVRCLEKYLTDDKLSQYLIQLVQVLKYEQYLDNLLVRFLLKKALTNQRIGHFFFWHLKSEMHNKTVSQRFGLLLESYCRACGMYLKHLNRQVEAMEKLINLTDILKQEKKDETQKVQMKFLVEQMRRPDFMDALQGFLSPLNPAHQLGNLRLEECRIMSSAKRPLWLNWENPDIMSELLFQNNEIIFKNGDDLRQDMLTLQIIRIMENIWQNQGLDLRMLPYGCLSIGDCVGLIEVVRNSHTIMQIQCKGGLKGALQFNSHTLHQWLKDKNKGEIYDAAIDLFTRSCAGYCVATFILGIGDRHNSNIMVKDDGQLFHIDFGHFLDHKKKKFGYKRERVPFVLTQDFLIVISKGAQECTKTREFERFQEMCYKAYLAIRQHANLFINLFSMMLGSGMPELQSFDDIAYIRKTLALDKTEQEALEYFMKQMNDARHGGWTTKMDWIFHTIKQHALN
Chain of H1047R PIK3CA enzyme (P27986 whole entry partner): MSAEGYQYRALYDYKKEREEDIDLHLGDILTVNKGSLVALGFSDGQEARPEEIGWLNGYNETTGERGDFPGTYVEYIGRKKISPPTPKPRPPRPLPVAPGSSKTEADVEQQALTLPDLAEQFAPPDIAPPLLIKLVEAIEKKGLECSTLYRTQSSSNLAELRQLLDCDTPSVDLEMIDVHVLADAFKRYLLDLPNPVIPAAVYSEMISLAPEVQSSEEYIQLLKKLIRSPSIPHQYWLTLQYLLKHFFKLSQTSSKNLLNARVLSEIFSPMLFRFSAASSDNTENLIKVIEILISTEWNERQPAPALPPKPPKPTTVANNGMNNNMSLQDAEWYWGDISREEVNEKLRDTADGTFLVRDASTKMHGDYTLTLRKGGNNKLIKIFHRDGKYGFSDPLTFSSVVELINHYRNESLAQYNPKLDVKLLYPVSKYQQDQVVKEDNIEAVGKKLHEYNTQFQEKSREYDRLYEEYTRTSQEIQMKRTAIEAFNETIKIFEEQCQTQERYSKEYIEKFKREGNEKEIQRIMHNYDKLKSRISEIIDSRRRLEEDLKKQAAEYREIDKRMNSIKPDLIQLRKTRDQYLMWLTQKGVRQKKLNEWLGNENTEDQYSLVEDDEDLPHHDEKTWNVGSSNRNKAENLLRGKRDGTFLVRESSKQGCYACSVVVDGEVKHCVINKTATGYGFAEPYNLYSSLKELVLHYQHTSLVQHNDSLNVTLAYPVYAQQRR

pIC50	SMILES
4.00 to 5.00	Cc1ccccc1Nc1ncc(-c2cnn(C)c2)cc1NC(=O)c1cccc2ccncc12 [I-105]
4.00 to 5.00	Cc1ccccc1Nc1ncc(-c2cnn(C)c2)cc1NC(=O)c1ccc(C#N)cc1 [I-106]
4.00 to 5.00	Cc1ccccc1Nc1ncc(-c2cnn(C)c2)cc1NC(=O)c1ccccc1C(F)(F)F [I-107]
4.00 to 5.00	Cc1ccccc1Nc1ncc(-c2cnn(C)c2)cc1NC(=O)c1ccc2[nH]ncc2c1 [I-108]
4.00 to 5.00	Cc1ccc(C(=O)Nc2cc(-c3cnn(C)c3)cnc2Nc2ccccc2C)cc1 [I-109]
5.00 to 6.00	Cc1ccccc1Nc1ncc(-c2cnn(C)c2)cc1NC(=O)c1cccc(C(F)(F)F)c1 [I-110]
4.00 to 5.00	Cc1ccccc1Nc1ncc(-c2cnn(C)c2)cc1NC(=O)c1ccccc1OC(F)(F)F [I-111]
4.00 to 5.00	Cc1ccccc1Nc1ncc(-c2cnn(C)c2)cc1NC(=O)c1cccc2nn(C)cc12 [I-112]
4.00 to 5.00	Cc1ccccc1Nc1ncc(-c2cnn(C)c2)cc1NC(=O)c1cccc2ccccc12 [I-113]
4.00 to 5.00	CC(=O)Nc1ccc(C(=O)Nc2cc(-c3cnn(C)c3)cnc2Nc2ccccc2C)cc1 [I-114]
4.00 to 5.00	Cc1cccc(C(=O)Nc2cc(-c3cnn(C)c3)cnc2Nc2ccccc2C)c1 [I-115]
4.00 to 5.00	Cc1ccccc1Nc1ncc(-c2cnn(C)c2)cc1NC(=O)c1cccc(C#N)c1 [I-116]
4.00 to 5.00	Cc1ccccc1Nc1ncc(-c2cnn(C)c2)cc1NC(=O)c1cccc(S(C)(=O)=O)c1 [I-118]
4.00 to 5.00	Cc1ccccc1Nc1ncc(-c2cnn(C)c2)cc1NC(=O)c1cccc2cnccc12 [I-119]
4.00 to 5.00	Cc1ccccc1Nc1ncc(-c2cnn(C)c2)cc1NC(=O)c1cccc(N(C)C)c1 [I-120]
4.00 to 5.00	Cc1ccccc1Nc1ncc(-c2cnn(C)c2)cc1NC(=O)c1cccc2cn(C)nc12 [I-121]
4.00 to 5.00	COc1cccc(C(=O)Nc2cc(-c3cnn(C)c3)cnc2Nc2ccccc2C)c1 [I-124]
4.00 to 5.00	Cc1ccccc1Nc1ncc(-c2cnn(C)c2)cc1NC(=O)c1cccc2cccnc12 [I-125]
4.00 to 5.00	COc1ccc(C(=O)Nc2cc(-c3cnn(C)c3)cnc2Nc2ccccc2C)cc1 [I-126]
4.00 to 5.00	Cc1ccccc1Nc1ncc(-c2cnn(C)c2)cc1NC(=O)c1ccccc1C [I-127]
4.00 to 5.00	Cc1ccccc1Nc1ncc(-c2cnn(C)c2)cc1NC(=O)c1ccccc1S(C)(=O)=O [I-128]
4.00 to 5.00	Cc1ccccc1Nc1ncc(-c2cnn(C)c2)cc1NC(=O)c1ccc(S(N)(=O)=O)cc1 [I-129]
4.00 to 5.00	Cc1ccccc1Nc1ncc(-c2cnn(C)c2)cc1NC(=O)c1ccccc1O [I-130]
4.00 to 5.00	Cc1ccccc1Nc1ncc(-c2cnn(C)c2)cc1NC(=O)c1cc2ccccc2s1 [I-131]
5.00 to 6.00	Cc1ccccc1Nc1ncc(-c2cnn(C)c2)cc1NC(=O)c1cc2ccccc2n1C [I-132]
5.00 to 6.00	Cc1ccccc1Nc1ncc(-c2cnn(C)c2)cc1NC(=O)c1csc2ccc(Cl)cc12 [I-145]

Continued, compound first:

SMILES	pIC50
Cc1ccccc1Nc1ncc(-c2cnn(C)c2)cc1NC(=O)c1ccc(C(F)(F)F)cc1 [I-117]	4.00 to 5.00
Cc1ccccc1Nc1ncc(-c2cnn(C)c2)cc1NC(=O)c1ccc(OC(F)(F)F)cc1 [I-122]	4.00 to 5.00
Cc1ccccc1Nc1ncc(-c2cnn(C)c2)cc1NC(=O)c1ccc(S(C)(=O)=O)cc1 [I-123]	4.00 to 5.00
O=C(Nc1cccnc1NCc1ccccc1)c1csc2ccccc12 [I-133]	4.00 to 5.00
COCCNc1ncccc1NC(=O)c1csc2ccccc12 [I-134]	4.00 to 5.00
CNC(=O)c1cnc(Nc2ccccc2C)c(NC(=O)Cc2ccccc2Cl)c1 [I-140]	4.00 to 5.00
CNC(=O)c1cnc(Nc2ccccc2C)c(NC(=O)c2cc(F)cc(F)c2)c1 [I-141]	5.00 to 6.00
CNC(=O)c1cnc(Nc2ccccc2C)c(NC(=O)c2cccc(F)c2)c1 [I-143]	4.00 to 5.00
Cc1ccccc1Nc1ncc(-c2cnn(CCO)c2)cc1NC(=O)c1cc(F)cc(C(F)(F)F)c1 [I-147]	6.00 to 6.30
COCCn1cc(-c2cnc(Nc3ccccc3C)c(NC(=O)c3cc(F)cc(C(F)(F)F)c3)c2)cn1 [I-148]	6.00 to 6.30
CC(C)(C)OC(=O)N1CCC(Nc2ncccc2NC(=O)c2csc3ccccc23)CC1 [I-151]	4.00 to 5.00
O=C(Nc1cccnc1NC1CCNCC1)c1csc2ccccc12 [I-152]	4.00 to 5.00
O=C(Nc1cccnc1NC1CCCCC1)c1csc2ccccc12 [I-153]	4.00 to 5.00
Cc1ccccc1Nc1ncc(NC(=O)CC#N)cc1NC(=O)c1cc(F)cc(C(F)(F)F)c1 [I-154]	5.00 to 6.00
Cc1ccccc1Nc1ncc(NCC#N)cc1NC(=O)c1cc(F)cc(C(F)(F)F)c1 [I-155]	6.00 to 6.30
CNC(=O)c1cnc(Nc2ccccc2C)c(NC(=O)c2ccnc3ccccc23)c1 [I-157]	4.00 to 5.00
CNC(=O)c1cnc(Nc2ccccc2C)c(NC(=O)c2nn(C)c3ccccc23)c1 [I-158]	4.00 to 5.00
CNC(=O)c1cnc(Nc2ccccc2C)c(NC(=O)C2(c3ccc(C)cc3)CC2)c1 [I-160]	4.00 to 5.00
CNC(=O)c1cnc(Nc2ccccc2C)c(NC(=O)Cc2cc(F)cc(F)c2)c1 [I-161]	4.00 to 5.00
CCC(C(=O)Nc1cc(C(=O)NC)cnc1Nc1ccccc1C)c1ccccc1 (centres unmarked) [I-162]	4.00 to 5.00

SMILES	pIC50
CNC(=O)c1cnc(Nc2ccccc2C)c(NC(=O)C2CCN(C(C)=O)CC2)c1 [I-163]	4.00 to 5.00
CNC(=O)c1cnc(Nc2ccccc2C)c(NC(=O)Cc2c(F)ccc(F)c2F)c1 [I-164]	4.00 to 5.00
CNC(=O)c1cnc(Nc2ccccc2C)c(NC(=O)[C@@H]2C[C@H]2c2ccccc2)c1 [I-165]	4.00 to 5.00
CNC(=O)c1cnc(Nc2ccccc2C)c(NC(=O)C(c2ccccc2)C(C)C)c1 (centres unmarked) [I-166]	4.00 to 5.00
CNC(=O)c1cnc(Nc2ccccc2C)c(NC(=O)Cc2cn(C)c3ccccc23)c1 [I-167]	4.00 to 5.00
CNC(=O)c1cnc(Nc2ccccc2C)c(NC(=O)[C@@H](OC)c2ccccc2)c1 [I-169]	4.00 to 5.00
CNC(=O)c1cnc(Nc2ccccc2C)c(NC(=O)CC2CCc3ccccc32)c1 (centres unmarked) [I-170]	4.00 to 5.00
CNC(=O)c1cnc(Nc2ccccc2C)c(NC(=O)[C@]23C[C@H]4C[C@H](C[C@H](C4)C2)C3)c1 [I-171]	5.00 to 6.00
Cc1ccccc1Nc1ncc(-c2cnn(C)c2)cc1NS(=O)(=O)c1ccccc1 [I-172]	4.00 to 5.00
CNC(=O)c1cnc(Nc2cccnc2C)c(NC(=O)c2cc(F)cc(C(F)(F)F)c2)c1 [I-173]	4.00 to 5.00
CNC(=O)c1cnc(Nc2ccc(OC)cc2)c(NC(=O)c2cc(F)cc(C(F)(F)F)c2)c1 [I-174]	4.00 to 5.00
CNC(=O)c1cnc(Nc2ccccc2C)c(NC(=O)c2n[nH]c3ccccc23)c1 [I-175]	4.00 to 5.00
CNC(=O)c1cnc(Nc2ccccc2C)c(NC(=O)c2cnc3ccccc3c2)c1 [I-176]	4.00 to 5.00
CNC(=O)c1cnc(Nc2ccccc2C)c(NC(=O)c2cc(C(F)(F)F)cc(C(F)(F)F)c2)c1 [I-177]	4.00 to 5.00
Cc1ccccc1Nc1ncc(NCC(=O)O)cc1NC(=O)c1cc(F)cc(C(F)(F)F)c1 [I-179]	5.00 to 6.00
CNC(=O)c1cnc(Nc2ccccc2C)c(NC(=O)c2ccc3ccccc3c2)c1 [I-182]	4.00 to 5.00
CNC(=O)c1cnc(Nc2ccccc2C)c(NC(=O)c2ccc3ncccc3c2)c1 [I-183]	4.00 to 5.00
CNC(=O)c1cnc(Nc2ccccc2C)c(NC(=O)c2cc3ccccc3cn2)c1 [I-184]	4.00 to 5.00
CNC(=O)c1cnc(NCc2nccn2C)c(NC(=O)c2cc(F)cc(C(F)(F)F)c2)c1 [I-185]	4.00 to 5.00
